Experimental data from paper PMC12476894, “Identification of α‑Azacyclic Acetamide-Based Inhibitors of P. falciparum Na^+ Pump (PfATP4) with Fast-Killing Asexual Blood-Stage Antimalarial Activity by Phenotypic Screening” (ACS Infectious Diseases, 2025).
≈ marks a conversion by molar mass, not a printed value. Where “and” joins values, the source holds several entries; their conditions need not be identical. Identical values can stand only once. Like-named read-outs stand apart in the source and are kept apart here.

Legend:
[1] = tested on: P. falciparum 3D7 parasites (Pf3D7); experiment: 72 h SYBR Green growth inhibition, ABS P. falciparum 3D7 (Phillips Lab); format: cell-based, Plasmodium falciparum; conditions: Plasmodium falciparum, 3D7; 72 h SYBR Green assay; mean ± SEM (n)
[2] = tested on: P. falciparum Dd2 (PfDd2) parasites; experiment: 72 h SYBR Green growth inhibition, ABS P. falciparum Dd2 (Phillips Lab); format: cell-based, Plasmodium falciparum; conditions: Plasmodium falciparum, DD2, 72 h, read-out: PfDd2 EC50
[3] = tested on: P. falciparum NF54^luc parasites; experiment: 72 h SYBR Green growth inhibition, PfNF54^luc; format: cell-based; conditions: Plasmodium falciparum, 72 h SYBR Green assay, read-out: PfNF54^luc EC50
[4] = tested on: P. falciparum NF54^luc parasites; experiment: Luciferase reporter (LR) / BRRoK assay, PfNF54^luc; format: cell-based, Plasmodium falciparum; conditions: Plasmodium falciparum, NF54, Hec50; luciferase reporter, 6 h
PfD10 attB = experiment: 72 h SYBR Green growth inhibition, PfD10 attB; format: cell-based; conditions: Plasmodium falciparum; 72 h SYBR Green assay
PfD10 attB + yDHODH = experiment: 72 h SYBR Green growth inhibition, strain expressing yeast DHODH; format: cell-based; conditions: Plasmodium falciparum, read-out: PfD10 attB + yDHODH EC50, 72 h SYBR Green assay
[5] = Human HepG2 cytotoxicity assay (CellTiter Glo); format: cell-based; conditions: HepG2 cells
in vitro = in vitro ADME; conditions: human liver microsomes, 1 µM compound, 0.4 mg/mL protein
[6] = tested on: Dd2 PfATP4^P412L mutant clones; experiment: 72 h SYBR Green growth inhibition, 2-selected Dd2 clones with PfATP4 P412L (Phillips Lab); format: cell-based, Plasmodium falciparum; conditions: for EC50: Plasmodium falciparum
Protocol: (§1) To confirm the MOA for the α-azacyclic acetamides against P. falciparum and to obtain potential information about whether or not they bind PfATP4 at an overlapping site with that of KAE609, we undertook resistance selections using PfDd2 parasites using the published cycling drug selection method. , α-Azacyclic acetamides 2 and 3 were chosen as representative examples of the pyrrole- and indole-based series, respectively. […] Additional cycles were performed at 20 × EC50, until resistant parasites were detected based on a fold change in EC50 compared to the parental clonal Dd2 line (Table S3). Resistant parasites were detected in the 2-selections in all 4 flasks after 4 pulses and for 3-selections in 3 flasks after 5 pulses. Clonal lines were generated from each flask, and one clone per flask was selected for WGS and EC50 determination (Tables S4 and S5). WGS analysis identified two single point mutations in PfATP4 that were not present in the original clonal Dd2 parasite line (Tables and S4). P412L was found in three of four flasks containing 2-selected resistance clones, and F917L was identified in all three flasks containing 3-selected clones and in the fourth flask containing 2-selected clones (Table S4). PfATP4 mutations identified by the WGS analysis in parasite lines were verified by PCR of the pfatp4 gene, followed by Sanger sequencing (Figures S5, S6 and Table S6). An additional protein coding gene (ribosomal protein S8e) was mutated in the 2-selections. However, this mutation was identified in only one of four sequenced clones and is therefore unlikely to be related to resistance to 2 (Figure S7). All three resistant clones derived from the 3-selections harbored an identical mutation in a gene (pfcpu) encoding a conserved protein of unknown function, which was absent in the parental line (Figure S8).
(§2) ABS P. falciparum 3D7, Dd2 or PfNF54^luc parasites (BEI resources) were cultured in RPMI 1640 medium (Millipore Sigma), supplemented with 25 mM HEPES, 0.5% Albumax-I (Thermo Scientific), 23 mM sodium bicarbonate, 92 μM hypoxanthine, and 10 μg/mL gentamicin sulfate at 37 °C, 5% CO2, using deidentified O^+ red blood cells (BioIVT) as previously described. − Growth inhibition assays were conducted in 96 well plate format using the SYBR Green or luciferase reporter assay depending on the strain with modifications as described , (see Supporting Information for a detailed description). Details for the luciferase reporter assay are described below under the BRRoK assay section.
(§3) EC50 and CC50 values were determined by nonlinear regression performed in GraphPad Prism Version 10. Unless otherwise specified, data were fitted to the log(inhibitor) vs response–variable slope with four parameters equation. […] For mutant cell lines and compound combinations where bottom plateau of zero growth was not reached, the bottom of the curve was defined at 0% based on background values obtained for parental Dd2 from the same study.
(§4) Resistant Dd2 parasites were selected using a high-pressure intermittent selection protocol using a previously described method. Selections were set up using 4 flasks per compound starting with approximately 3 × 10^9 parasites per flask (80 mL per flask, 4% hematocrit, 3% parasitemia at the beginning of each pulse, mostly ring-stage parasites via previous sorbitol synchronization. Pulse 1 and 2 (48 h) were conducted at 10xEC50, and subsequent pulses were conducted at 20xEC50. Parasites cleared within 48 h under these conditions. 3-Selections used a total of 4 pulses, while 2-selections required 5 pulses before resistant parasites emerged (Table S3). Culture media was replenished daily for a week after each pulse, then every 2 days with weekly replenishment of blood. Cultures were monitored by microscopy until recrudescence. Clonal parasites were obtained from each flask by limiting dilution and maintained in drug free RPMI-1640 media prior to being analyzed for EC50 shifts. […]

[7] = tested on: Dd2 PfATP4^F917L mutant clones; experiment: 72 h SYBR Green growth inhibition, 2- or 3-selected Dd2 clones with PfATP4 F917L (Phillips Lab); format: cell-based, Plasmodium falciparum; conditions: for EC50: Plasmodium falciparum
Protocol: as §1, §2, §3, §4

[8] = tested on: P. falciparum NF54^luc parasites; experiment: Luciferase reporter (LR) / BRRoK assay, PfNF54^luc; format: cell-based; conditions: Plasmodium falciparum, NF54, Hec50, 72 h
physchem = conditions: kinetic from dmso stock
[9] = tested on: Pf3D7 trophozoite-stage parasites, cytosolic pH (pHcyt); cell-based assay for ATP4 inhibition; experiment: P. falciparum cytosolic dose response pH assay (BCECF, with concanamycin A); conditions: for EC50: Plasmodium falciparum, read-out: Pf3D7 pH EC50
Dd2-B2 (PfATP4^WT) = experiment: Drug susceptibility assay for cross-resistance profiling (Fidock Lab), parental line; format: cell-based, Plasmodium falciparum; conditions: for EC50: Plasmodium falciparum
Dd2^L350H (PfATP4^L350H) = experiment: Drug susceptibility assay for cross-resistance profiling (Fidock Lab), L350H; format: cell-based, Plasmodium falciparum; conditions: Table 3 data set
Dd2^P412L (PfATP4^P412L) = experiment: Drug susceptibility assay for cross-resistance profiling (Fidock Lab), P412L; format: cell-based, Plasmodium falciparum; conditions: Table 3 data set
[10] = tested on: isolated Pf3D7 trophozoites, [Na+]cyt; experiment: Measurement of P. falciparum cytosolic Na+ concentration (SBFI); format: cell-based, Plasmodium falciparum; conditions: 50 nM
Protocol: Measurements were carried out in 96 well plates (excitation wavelengths: 340 and 380 nm; emission wavelength: 515 nm), as described previously. Fluorescence ratio values (340 nm/380 nm) were converted to [Na^+]cyt using a calibration procedure in which parasites were suspended in solutions of varying [Na^+] containing ionophores.

[11] = DD2, read-out: EC50, 2-resistant Flask 2 Clone F9
[12] = DD2, read-out: EC50, 2-resistant Flask 3 Clone F5
[13] = DD2, read-out: EC50, 2-resistant Flask 4 Clone E10
[14] = DD2, read-out: EC50, 2-selected flask #3 clone F5
[15] = DD2, read-out: EC50, 2-resistant Flask 1 Clone B6
[16] = DD2, read-out: EC50, 3-resistant Flask 2 Clone D10
[17] = DD2, read-out: EC50, 3-resistant Flask 3 Clone D8
[18] = DD2, read-out: EC50, 3-resistant Flask 4 Clone B3
[19] = DD2, read-out: EC50, 3-selected flask #3 clone D8
[20] = Plasmodium falciparum, DD2, 15-selected line

SMILES	EC50 [1] [nM]	EC50 [2] [nM]	EC50 [6, 11] [nM]	EC50 [6, 12] [nM]	EC50 [6, 13] [nM]	EC50 [6, 14] [nM]	Fold EC50 change compared to WT Dd2, 2-selected flask #3 clone F5 [6] [fold]	EC50 [7, 15] [nM]	EC50 [7, 16] [nM]	EC50 [7, 17] [nM]	EC50 [7, 18] [nM]	EC50 [7, 19] [nM]	Fold EC50 change compared to WT Dd2, 3-selected flask #3 clone D8 [7] [fold]	EC50 [9] [nM]	also measured
COc1ccc(Cl)cc1NC(=O)Cn1cccc1-c1nnc(C2CC2)o1 [compound 1, N-(5-chloro-2-methoxyphenyl)-2-(2-(5-cyclopropyl-1,3,4-oxadiazol-2-yl)-1H-pyrrol-1-yl)acetamide]	2500 ± 260	2400 ± 130	7500 ± 2400	7600 ± 2000	9400 ± 2500	8300 ± 1100	3.4	> 10000	> 10000	> 10000	> 10000	12000 ± 460	4.6	4500 ± 2000	EC50 [3]: 3000 ± 930 nM; EC50 [4]: 3200 ± 16 nM; EC50 (PfD10 attB): 2900 nM; EC50 (PfD10 attB + yDHODH): 3200 nM; CC50 at 96 h [5]: > 50000 nM; microsomal CLint (in vitro): 279 µL/min/mg; EC50 [8]: 1600 ± 75 nM; solubility (physchem; pH 2, simulated gastric fluid): 25 µM (≈ 9.32 µg/mL); solubility (physchem; pH 6.5, aqueous buffer): 12.5 µM (≈ 4.66 µg/mL)
C[C@H]1Cc2c([nH]c3cc(Cl)c(F)cc23)[C@@]2(N1)C(=O)Nc1ccc(Cl)cc12 [KAE609, cipargamin, reference compound]	1 ± 0.038	1.2 ± 0.087	14 ± 1.4	12 ± 1.4	14 ± 1.1	13 ± 1.1	11	12 ± 0.98	12 ± 0.34	12 ± 0.97	14 ± 0.9	12 ± 0.58	11	3 ± 2.1	EC50 (Dd2-B2 (PfATP4^WT); DD2, 72 h, read-out: EC50, Dd2-B2): 1.3 ± 0.1 nM; EC50 (Dd2-B2 (PfATP4^WT); DD2, read-out: EC50, Dd2-B2): 2.1 nM; Fold change, Dd2-B2 (Dd2-B2 (PfATP4^WT); parent, Table S8): 1 fold; EC50 (Dd2^L350H (PfATP4^L350H); [20]): 4.8 ± 0.3 nM; EC50 fold-change vs Dd2-B2, Dd2^L350H (Dd2^L350H (PfATP4^L350H)): 3.7 fold and 4- to 6 fold; EC50 (Dd2^P412L (PfATP4^P412L); [20]): 11 ± 0.7 nM; EC50 fold-change vs Dd2-B2, Dd2^P412L (Dd2^P412L (PfATP4^P412L)): 8.5 fold; increase in [Na+]cyt (in words) [10]: increase in [Na^+]cyt; difference between pH EC50 and growth inhibition EC50 ([9]; Pf3D7, 72 h SYBR Green vs pH assay): ≤ 3.2 fold; effect on parasite cytosolic pH (pHcyt) in presence of CMA (in words) ([9]; Pf3D7, CMA 50 nM): increase in pHcyt
